For series [1], the species on record is Rattus norvegicus. Kind of series: Potentiation of AMPA receptor mediated KA-induced current in Sprague-Dawley rat primary cerebellar granule neurons at 200 uM.
The nature of series [2]: Potentiation of AMPA receptor mediated KA-induced current in Sprague-Dawley rat primary cerebellar granule neurons.
A short description of series [3]: Extracellular drug level in Sprague-Dawley rat hippocampus at 100 mg/kg, po after 4 hrs. It counts as ADME, organism-based. More on the design: dose 100 mg/kg, route oral. Particulars: hippocampus extracellular fluid, read-out: Drug uptake.
Series [4] can be described thus: Extracellular drug level in Sprague-Dawley rat hippocampus at 100 mg/kg, po after 6 hrs. It counts as ADME, organism-based. More on the design: dose 100 mg/kg, route oral. Particulars: hippocampus extracellular fluid, read-out: Drug uptake.

The source of these data is ChEMBL document CHEMBL1152698, “A novel class of allosteric modulators of AMPA/Kainate receptors” (Bioorg Med Chem Lett, 2009).

The structures appear in SMILES notation.

A word on the EC50: it is the concentration needed to bring the measured effect to its halfway point.

`CCCNc1ccc(Cl)cc1S(N)(=O)=O`: the Activity in series [1] was determined as 80%. Besides, the EC50 in series [2] turned out to be 134 µM. As to `Nc1cc(Cl)c(Cl)cc1S(N)(=O)=O`, the Activity in series [1] came out at 35%. For `Nc1ccc(Cl)cc1S(N)(=O)=O`, the Activity in series [1] amounted to 23%. In series [3], the concentration at 4 h was 12000 ng/mL. Moreover, in series [4], the concentration at 6 h was determined as 8000 ng/mL. Also, the EC50 in series [2] came out at 284 µM. With `COc1ccc(S(N)(=O)=O)c(N)c1`, in series [1], the Activity was -5%. Same read-out and setting: as for `Nc1ccc([N+](=O)[O-])cc1S(N)(=O)=O`, the figure is -8%; as for `CCNS(=O)(=O)c1cc(Cl)ccc1N`, 12%; as for `CNc1ccc(Cl)cc1S(N)(=O)=O`, 69%.

On to `Nc1ccccc1S(N)(=O)=O`, for which the Activity in series [1] was -5%. Still for that read-out and setting: as for `CNS(=O)(=O)c1cc(Cl)ccc1N`, the figure is 5%.

For the compound `CC1Nc2ccc(Cl)cc2S(=O)(=O)N1` (racemic), in series [1], the Activity came to 80%. On the same count and under the same terms, as for `CC(C)Nc1ccc(Cl)cc1S(N)(=O)=O`, the figure is 32%.

For the compound `Nc1cc(Cl)ccc1S(N)(=O)=O`, the Activity in series [1] turned out to be 8%.

Consider `Nc1cc(Cl)c(S(N)(=O)=O)cc1S(N)(=O)=O`, for which the Activity in series [1] was -6%. `CCNc1ccc(Cl)cc1S(N)(=O)=O`: the Activity in series [1] amounted to 91%. Take `Cc1cccc(S(N)(=O)=O)c1N`: the Activity in series [1] was determined as 7%. The same measure, in the same setting: in the case of `CCCNS(=O)(=O)c1cc(Cl)ccc1N` it was 4%.
